In series [1] the test system is A375 (skin) cancer cell lines. Nature of the series: AlamarBlue cytotoxicity assay, A375. Type of series: cell-based. Particulars: for Cytotoxicity (IC50) A375 / IC50: A375 cells, 24 h treatment, AlamarBlue, mean ± SD of three independent experiments; for Selectivity index (SI) A375: ratio IC50 MRC5 / IC50 A375; for IC50 / viability at 5 µg/mL / viability at 15 µg/mL / viability at 25 µg/mL / viability at 50 µg/mL / viability at 75 µg/mL / viability at 100 µg/mL: Homo sapiens; for IC50: A-375, 24 h; for viability at 5 µg/mL / viability at 15 µg/mL / viability at 25 µg/mL / viability at 50 µg/mL / viability at 75 µg/mL / viability at 100 µg/mL: A-375. On the procedure:
(§1) PC3, A375, and MRC5 cell lines were purchased from ATCC and were cultured in Dulbecco’s Modified Eagle Media (DMEM) supplemented with 10% Fetal Bovine Serum (FBS) (Highveld biological), 1% gentamycin and 1% penicillin/streptomycin (Sigma, USA).
(§2) The growth inhibitory effect and cytotoxicity of the compounds were tested in triplicate against two cancer cell lines (PC3 and A375) and one healthy cell line (MRC5), respectively using Alamar Blue assay.
(§3) PC3, A375, and MRC5 cell lines were cultured in 96 well tissue culture plates. […] Cells were treated for 24 h. […] Cell viability was measured using AlamarBlue and readings were obtained in terms of fluorescent values using a microplate reader (BioTek Synergy HT). Samples were exposed to an excitation wavelength of 530 nm and at the emission wavelength of 590 nm. Cell viability percentage was calculated using the formula below: Cellviability=absorbanceoftreatedcells-absorbanceofblank/absorbanceofuntreatedcells-absorbanceofblank×100%

The test system of series [2] is PC3 (prostate) cancer cell lines. Put plainly: AlamarBlue cytotoxicity assay, PC3. The format is cell-based. The following applies: for Selectivity index (SI) PC3: ratio IC50 MRC5 / IC50 PC3; for IC50: Homo sapiens, PC-3. Here is the method: as §1, §2, §3
Series [3] deals with MRC5 (healthy lung) cell lines. Put plainly: AlamarBlue cytotoxicity assay, MRC5 normal cells. The format is cell-based. The following applies: 24 h treatment, mean ± SD of three independent experiments. On the procedure: (§4) PC3, A375, and MRC5 cell lines were purchased from ATCC and were cultured in Dulbecco’s Modified Eagle Media (DMEM) supplemented with 10% Fetal Bovine Serum (FBS) (Highveld biological), 1% gentamycin and 1% penicillin/streptomycin (Sigma, USA). Cells were maintained at 37 °C under 5% of carbon dioxide (CO2) and 95% relative humidity.
as §2
(§5) PC3, A375, and MRC5 cell lines were cultured in 96 well tissue culture plates. […] Cells were treated for 24 h. 10 µl of AlamarBlue (Thermo Fisher Scientific) was added to each well at 22 h after treatment and incubated for 2 h at 37 °C in the dark since AlamarBlue is light sensitive. Cell viability was measured using AlamarBlue and readings were obtained in terms of fluorescent values using a microplate reader (BioTek Synergy HT). Samples were exposed to an excitation wavelength of 530 nm and at the emission wavelength of 590 nm. Cell viability percentage was calculated using the formula below: Cellviability=absorbanceoftreatedcells-absorbanceofblank/absorbanceofuntreatedcells-absorbanceofblank×100%

Series [4] in a line: AlamarBlue cytotoxicity assay, MRC5 normal cells. Type of series: cell-based. The following applies: human, MRC5 healthy lung cells, 24 h treatment, mean ± SD of three independent experiments. Here is the method: as §4, §2, §5
Where [5] appears, read: PC3 cells, 24 h treatment, AlamarBlue, mean ± SD of three independent experiments.

For the compound `O=C(O)C(Cc1ccccc1)/N=C/c1ccccc1OCc1cn(-c2ccccc2)nn1` (stereo not drawn) [Compound 6, (e)-3-phenyl-2-((2-((1-phenyl-1H-1,2,3-triazol-4-yl)methoxy)benzylidene)amino)propanoic acid], the “Cell viability (%)” value in series [1] (A375, 5 µg/mL) amounted to 68%; in series [1] (A375, 15 µg/mL) it was 57.67%; in series [1] (A375, 25 µg/mL), 45%; in series [1] (A375, 50 µg/mL), 27%; in series [1] (A375, 75 µg/mL), 16%; in series [1] (A375, 100 µg/mL), 8%. Moreover, the “Cell viability (%)” value in series [2] (PC3, 5 µg/mL) worked out at 79%; in series [2] (PC3, 15 µg/mL) it was 68%; in series [2] (PC3, 25 µg/mL), 60%; in series [2] (PC3, 50 µg/mL) it was 49%; in series [2] (PC3, 75 µg/mL) it was 26%; in series [2] (PC3, 100 µg/mL) it was 18%. The “Cytotoxicity (IC50) A375” value in series [1] stood at 24.18 ± 0.57 µg/mL. Moreover, the “Selectivity index (SI) A375” value in series [1] is recorded as 3.85. In series [2] (setting [5]), the “Cytotoxicity (IC50) PC3” value came to 45.00 ± 1.12 µg/mL. Moreover, the “Selectivity index (SI) PC3” value in series [2] was 2.07. Also, the “Cytotoxicity (IC50) MRC5” value in series [3] stood at 93.07 ± 2.42 µg/mL.

As to `O=C([O-])[C@H](Cc1ccc([O-])cc1)/N=C/c1ccccc1OCc1cn(-c2ccccc2)nn1.[Na+].[Na+]` [Compound 4, sodium (s,e)-3-(4-oxidophenyl)-2-((2-((1-phenyl-1H-1,2,3-triazol-4-yl)methoxy)benzylidene)amino)propanoate], the melting point was 148 to 150 °C. In series [1], the IC50 worked out at 24.8 ± 0.61 µg/mL and the “Selectivity index (SI) A375” value is listed as 3.56. Also, the viability at 5 µg/mL in series [1] (A375, 5 µg/mL) is 68.7%. Also, the viability at 15 µg/mL in series [1] (A375, 15 µg/mL) is 59.7%. Besides, in series [1] (A375, 25 µg/mL), the viability at 25 µg/mL is 45%. In series [1] (A375, 50 µg/mL), the viability at 50 µg/mL was 25%. The viability at 75 µg/mL in series [1] (A375, 75 µg/mL) came out at 16%. Further, the viability at 100 µg/mL in series [1] (A375, 100 µg/mL) was 11%. The IC50 in series [2] (setting [5]) turned out to be 55.7 ± 1.28 µg/mL. Moreover, in series [2], the “Activity for the proliferation of the PC3 cancer cell lines (in words)” value is listed as “moderate activity” and the “Selectivity index (SI) PC3” value is recorded as 1.59. For the same compound, the viability at 5 µg/mL in series [2] (PC3, 5 µg/mL) came to 84%. Besides, the viability at 15 µg/mL in series [2] (PC3, 15 µg/mL) is 78%. Also, the viability at 25 µg/mL in series [2] (PC3, 25 µg/mL) is 70%. The viability at 50 µg/mL in series [2] (PC3, 50 µg/mL) came to 56%. The viability at 75 µg/mL in series [2] (PC3, 75 µg/mL) was determined as 34%. For the same compound, the viability at 100 µg/mL in series [2] (PC3, 100 µg/mL) is 21.3%. Besides, in series [4], the IC50 at 24 h was 88.4 ± 2.38 µg/mL.

On to `O=C([O-])[C@H](Cc1c[nH]c2ccccc12)/N=C/c1ccccc1OCc1cn(-c2ccccc2)nn1.[Na+]` [Compound 3, sodium (s,e)-3-(1H-indol-3-yl)-2-((2-((1-phenyl-1H-1,2,3-triazol-4-yl)methoxy)benzylidene)amino)propanoate], for which the melting point lay in the range of 196 to 198 °C. Further, in series [1], the IC50 was 21.9 ± 0.52 µg/mL and the “Selectivity index (SI) A375” value is given as 3.95. In addition, the viability at 5 µg/mL in series [1] (A375, 5 µg/mL) came to 68%. Also, the viability at 15 µg/mL in series [1] (A375, 15 µg/mL) worked out at 57.7%. Besides, in series [1] (A375, 25 µg/mL), the viability at 25 µg/mL is 42%. Also, the viability at 50 µg/mL in series [1] (A375, 50 µg/mL) came to 23%. Also, the viability at 75 µg/mL in series [1] (A375, 75 µg/mL) came out at 14%. The viability at 100 µg/mL in series [1] (A375, 100 µg/mL) amounted to 9%. In addition, the IC50 in series [2] (setting [5]) turned out to be 40.5 ± 1.06 µg/mL. Moreover, in series [2] (PC3, 5 µg/mL), the viability at 5 µg/mL was found to be 77%. Besides, the viability at 15 µg/mL in series [2] (PC3, 15 µg/mL) worked out at 65.3%. In addition, in series [2] (PC3, 25 µg/mL), the viability at 25 µg/mL stood at 58%. Also, in series [2] (PC3, 50 µg/mL), the viability at 50 µg/mL was determined as 44%. The viability at 75 µg/mL in series [2] (PC3, 75 µg/mL) is 22%. Besides, in series [2] (PC3, 100 µg/mL), the viability at 100 µg/mL amounted to 16%. Moreover, in series [2], the “Selectivity index (SI) PC3” value came out at 2.13. Further, in series [4], the IC50 at 24 h was determined as 86.4 ± 2.64 µg/mL.

`O=C(O)CCC(/N=C/c1ccccc1OCc1cn(-c2ccccc2)nn1)C(=O)O` (stereo in doubt) [Compound 2, (s,e)-2-((2-((1-phenyl-1H-1,2,3-triazol-yl)methoxy)benzylidene)amino)pentanedioic acid] had a melting point of 146 to 148 °C. Further, in series [1], the “Cytotoxicity (IC50) A375” value came out at 36.12 ± 0.87 µg/mL, the IC50 fell in the range of 36.1 to 40.4 µg/mL and the “Selectivity index (SI) A375” value stood at 2.36. Further, the viability at 5 µg/mL in series [1] (A375, 5 µg/mL) came out at 75.7%. Besides, the viability at 15 µg/mL in series [1] (A375, 15 µg/mL) turned out to be 67%. For the same compound, the viability at 25 µg/mL in series [1] (A375, 25 µg/mL) is 53.3%. The viability at 50 µg/mL in series [1] (A375, 50 µg/mL) came to 34%. Further, the viability at 75 µg/mL in series [1] (A375, 75 µg/mL) was 20.7%. Also, in series [1] (A375, 100 µg/mL), the viability at 100 µg/mL came out at 14%. In addition, the IC50 in series [2] (setting [5]) came out at 60.6 ± 1.42 µg/mL. In series [2], the “Activity for the proliferation of the PC3 cancer cell lines (in words)” value is given as “moderate activity” and the “Selectivity index (SI) PC3” value is 1.41. For the same compound, the viability at 5 µg/mL in series [2] (PC3, 5 µg/mL) came out at 90.3%. For the same compound, the viability at 15 µg/mL in series [2] (PC3, 15 µg/mL) came to 81%. For the same compound, the viability at 25 µg/mL in series [2] (PC3, 25 µg/mL) is 71%. Moreover, in series [2] (PC3, 50 µg/mL), the viability at 50 µg/mL worked out at 56%. In series [2] (PC3, 75 µg/mL), the viability at 75 µg/mL stood at 36%. Also, the viability at 100 µg/mL in series [2] (PC3, 100 µg/mL) worked out at 28%. Moreover, the IC50 at 24 h in series [4] was 85.3 ± 2.27 µg/mL.

`O=Cc1ccccc1OCc1cn(-c2ccccc2)nn1` [Compound 1, 2-((1-phenyl-1H-1,2,3-triazol-4-yl)methoxy)benzaldehyde] showed a melting point of 147 to 149 °C. In series [1], the “Cytotoxicity (IC50) A375” value is given as 40.37 ± 1.03 µg/mL, the IC50 is 36.1 to 40.4 µg/mL and the “Selectivity index (SI) A375” value was 1.90. In series [1] (A375, 5 µg/mL), the viability at 5 µg/mL worked out at 79%. Further, the viability at 15 µg/mL in series [1] (A375, 15 µg/mL) stood at 69%. In addition, the viability at 25 µg/mL in series [1] (A375, 25 µg/mL) was 55%. Besides, the viability at 50 µg/mL in series [1] (A375, 50 µg/mL) was 37%. For the same compound, the viability at 75 µg/mL in series [1] (A375, 75 µg/mL) was 24%. In addition, the viability at 100 µg/mL in series [1] (A375, 100 µg/mL) was determined as 18%. The IC50 in series [2] (setting [5]) was 75 ± 1.82 µg/mL. The viability at 5 µg/mL in series [2] (PC3, 5 µg/mL) was 95%. Moreover, in series [2] (PC3, 15 µg/mL), the viability at 15 µg/mL turned out to be 89%. For the same compound, the viability at 25 µg/mL in series [2] (PC3, 25 µg/mL) was 80%. Moreover, the viability at 50 µg/mL in series [2] (PC3, 50 µg/mL) stood at 63%. Also, the viability at 75 µg/mL in series [2] (PC3, 75 µg/mL) was determined as 47%. Further, in series [2] (PC3, 100 µg/mL), the viability at 100 µg/mL was 38%. Besides, in series [2], the “Selectivity index (SI) PC3” value was 1.02. The IC50 at 24 h in series [4] turned out to be 76.9 ± 1.87 µg/mL.

(Values after article PMC10960833, “1,2,3-triazole and chiral Schiff base hybrids as potential anticancer agents: DFT, molecular docking and ADME studies” (Scientific Reports, 2024).)
